Measured values as given in patent US7598418B2, “Amide derivatives” (Institute of Medicinal Molecular Design, Inc., priority 2002, dated 2009).

Test system: Jurkat cells
Assay: Jurkat cell proliferation, MTS method: compound alone or combined with bleomycin
Assay type: cell-based
Design: key: ┌++┘ indicates observation of remarkable enhancement; ┌+┘ indicates moderated enhancement
Conditions: compound plus bleomycin 5 μg/ml or 10 μg/ml, 36 hours, survival rate vs DMSO control
Method: By using aforementioned synthetic compounds, effects on proliferation of Jurkat cells by sole administration and inhibitory effects on cell proliferation by administration in combination with bleomycin were examined. Materials and methods are as follows. Jurkat cells obtained from Dainippon Pharmaceutical Co. Ltd. were inoculated at about 10,000 cells per well in a 96 well culture plate, and incubated in 10% bovine fetal serum (Irvine Scientific) supplemented with RPMI1640 (ICN) medium in 5% CO2 incubator at 37° C. […] 36 hours after the incubation, the number of living cells was counted by the MTS method.
More specifically, 20 μl of CellTiter96™ AQueous One Solution (Promega) was added per one well, and after the cells were incubated for additional one hour, an absorbance at 490 nm was measured by using a microplate reader. The same culture added with DMSO as a solvent at final concentration of 0.25% was used as a control. The number of cells in the control was considered as 100% survival rate, and for each compound, survival rates by sole administration or a combined administration were calculated. […] In the table, ┌++┘ indicates observation of remarkable enhancement, ┌+┘ indicates moderated enhancement.

CC(C)(C)c1ccc(CNS(=O)(=O)c2cccc3c(O)cccc23)cc1 [Compound 2-7, N-[4-(tert-Butyl)benzyl]-5-hydroxynaphthalene-i-sulfonamide] was tested. Which “Activity (enhancement of inhibitory effect on cell proliferation in combination with bleomycin)” value did it give?
The value was “++”.

For Cc1ccc(S(=O)(=O)Oc2cccc3c(S(=O)(=O)NCc4ccccc4)cccc23)cc1 [Compound 1-1, N-Benzyl-5-{[(4-methylphenyl)sulfonyl]oxy}naphthalene-1-sulfonamide], which “Activity (enhancement of inhibitory effect on cell proliferation in combination with bleomycin)” value is on record?
The value was “++”.

With Cc1ccc(S(=O)(=O)Oc2cccc3c(S(=O)(=O)NCc4ccc(C(F)(F)F)cc4)cccc23)cc1 [Compound 1-9, N-[4-(Trifluoromethyl)benzyl]-5-{[(4-methylphenyl)sulfonyl]oxy}naphthalene-1-sulfonamide] as the compound, how does the “Activity (enhancement of inhibitory effect on cell proliferation in combination with bleomycin)” value read?
Its value is “++”.

Which “Activity (enhancement of inhibitory effect on cell proliferation in combination with bleomycin)” value does the source give for Cc1ccc(S(=O)(=O)Oc2cccc3c(S(=O)(=O)NCc4c(F)cccc4F)cccc23)cc1 [Compound 1-2, N-(2,6-Difluorobenzyl)-5-{[(4-methylphenyl)sulfonyl]oxy}naphthalene-1-sulfonamide] here?
The value was “+”.

For Cc1ccc(S(=O)(=O)Oc2cccc3c(S(=O)(=O)NCc4ccc(C(C)(C)C)cc4)cccc23)cc1 [Compound 1-7, N-[4-(tert-Butyl)benzyl]-5-{[(4-methylphenyl)sulfonyl]oxy}naphthalene-1-sulfonamide], which “Activity (enhancement of inhibitory effect on cell proliferation in combination with bleomycin)” value is on record?
Its value is “++”.

For O=S(=O)(NCc1ccccc1C(F)(F)F)c1cccc2c(O)cccc12 [Compound 2-8, N-[2-(Trifluoromethyl)benzyl]-5-hydroxynaphthalene-1-sulfonamide], which “Activity (enhancement of inhibitory effect on cell proliferation in combination with bleomycin)” value is on record?
The value was “+”.

Cc1ccc(S(=O)(=O)Oc2cccc3c(S(=O)(=O)NCc4ccccc4C)cccc23)cc1 [Compound 1-6, N-(2-Methylbenzyl)-5-{[(4-methylphenyl)sulfonyl]oxy}naphthalene-1-sulfonamide] was tested. Which “Activity (enhancement of inhibitory effect on cell proliferation in combination with bleomycin)” value did it give?
The value was “++”.

Which “Activity (enhancement of inhibitory effect on cell proliferation in combination with bleomycin)” value does the source give for Cc1ccc(S(=O)(=O)Oc2cccc3c(S(=O)(=O)NCCc4ccccc4)cccc23)cc1 [Compound 1-25, N-(2-Phenethyl)-5-{[(4-methylphenyl)sulfonyl]oxy}naphthalene-1-sulfonamide] here?
The value was “+”.

With O=S(=O)(NCc1cccc2ccccc12)c1cccc2c(O)cccc12 [Compound 2-19, N-(1-Naphthylmethyl)-5-hydroxynaphthalene-1-sulfonamide] as the compound, how does the “Activity (enhancement of inhibitory effect on cell proliferation in combination with bleomycin)” value read?
Its value is “++”.

For O=S(=O)(NCCc1ccccc1)c1ccc2c(O)cccc2c1 [Compound 4-13, N-(2-Phenethyl)-5-hydroxynaphthalene-2-sulfonamide], which “Activity (enhancement of inhibitory effect on cell proliferation in combination with bleomycin)” value is on record?
The value was “+”.

Which “Activity (enhancement of inhibitory effect on cell proliferation in combination with bleomycin)” value does the source give for Cc1ccc(S(=O)(=O)Oc2cccc3c(S(=O)(=O)NCc4ccc(Cl)cc4Cl)cccc23)cc1 [Compound 1-3, N-(2,4-Dichlorobenzyl)-5-{[(4-methylphenyl)sulfonyl]oxy}naphthalene-1-sulfonamide] here?
The value was “++”.

How did the “Activity (enhancement of inhibitory effect on cell proliferation in combination with bleomycin)” value turn out when Cc1ccc(S(=O)(=O)Oc2cccc3c(S(=O)(=O)NCc4ccc5c(c4)OCO5)cccc23)cc1 [Compound 1-15, N-(3,4-Methylenedioxybenzyl)-5-{[(4-methylphenyl)sulfonyl]oxy}naphthalene-1-sulfonamide] was run?
Its value is “+”.

How did the “Activity (enhancement of inhibitory effect on cell proliferation in combination with bleomycin)” value turn out when COc1cccc(CNS(=O)(=O)c2ccc3c(N)cccc3c2)c1OC [Compound 6-3, 5-Amino-N-(2,3-dimethoxybenzyl)naphthalene-2-sulfonamide] was run?
Its value is “+”.

Cc1ccc(S(=O)(=O)Oc2cccc3c(S(=O)(=O)NCC4CCCCC4)cccc23)cc1 [Compound 1-23, N-Cyclohexylmethyl-5-{[(4-methylphenyl)sulfonyl]oxy}naphthalene-1-sulfonamide] was tested. Which “Activity (enhancement of inhibitory effect on cell proliferation in combination with bleomycin)” value did it give?
The value was “+”.

O=S(=O)(NCc1ccc(C(F)(F)F)cc1)c1cccc2c(O)cccc12 [Compound 2-9, N-[4-(Trifluoromethyl)benzyl]-5-hydroxynaphthalene-1-sulfonamide] was tested. Which “Activity (enhancement of inhibitory effect on cell proliferation in combination with bleomycin)” value did it give?
Its value is “+”.

How did the “Activity (enhancement of inhibitory effect on cell proliferation in combination with bleomycin)” value turn out when O=S(=O)(NCc1ccc(Cl)cc1Cl)c1cccc2c(O)cccc12 [Compound 2-3, N-(2,4-Dichlorobenzyl)-5-hydroxynaphthalene-1-sulfonamide] was run?
Its value is “++”.

CC(=O)Oc1cccc2cc(S(=O)(=O)NCc3ccc(C(F)(F)F)cc3)ccc12 [Compound 3-5, 5-Acetyloxy-N-[4-(trifluoromethyl)benzyl]naphthalene-2-sulfonamide] was tested. Which “Activity (enhancement of inhibitory effect on cell proliferation in combination with bleomycin)” value did it give?
The value was “+”.

How did the “Activity (enhancement of inhibitory effect on cell proliferation in combination with bleomycin)” value turn out when Cc1ccc(S(=O)(=O)Oc2cccc3c(S(=O)(=O)NCc4ccc(C)o4)cccc23)cc1 [Compound 1-20, N-[(5-Methylfuran-2-yl)methyl]-5-{[(4-methylphenyl)sulfonyl]oxy}naphthalene-1-sulfonamide] was run?
The value was “+”.

Which “Activity (enhancement of inhibitory effect on cell proliferation in combination with bleomycin)” value does the source give for COc1cccc(CNS(=O)(=O)c2cccc3c(O)cccc23)c1OC [Compound 2-13, N-(2,3-Dimethoxylbenzyl)-5-hydroxynaphthalene-1-sulfonamide] here?
The value was “+”.

With CC(=O)Oc1cccc2cc(S(=O)(=O)NCc3ccc(C(C)(C)C)cc3)ccc12 [Compound 3-4, 5-Acetyloxy-N-[4-(tert-butyl)benzyl]naphthalene-2-sulfonamide] as the compound, how does the “Activity (enhancement of inhibitory effect on cell proliferation in combination with bleomycin)” value read?
The value was “++”.

How did the “Activity (enhancement of inhibitory effect on cell proliferation in combination with bleomycin)” value turn out when O=S(=O)(NCc1ccc(C(F)(F)F)cc1)c1ccc2c(O)cccc2c1 [Compound 4-5, N-[4-(Trifluoromethyl)benzyl]-5-hydroxynaphthalene-2-sulfonamide] was run?
The value was “+”.

How did the “Activity (enhancement of inhibitory effect on cell proliferation in combination with bleomycin)” value turn out when COc1cccc(CNS(=O)(=O)c2ccc3c(O)cccc3c2)c1OC [Compound 4-6, N-(2,3-Dimethoxybenzyl)-5-hydroxynaphthalene-2-sulfonamide] was run?
The value was “+”.

Which “Activity (enhancement of inhibitory effect on cell proliferation in combination with bleomycin)” value does the source give for Cc1ccc(S(=O)(=O)Oc2cccc3c(S(=O)(=O)NC(C)c4ccccc4)cccc23)cc1 (stereo not drawn) [Compound 1-26, N-(1-Phenethyl)-5-{[(4-methylphenyl)sulfonyl]oxy}naphthalene-1-sulfonamide] here?
Its value is “++”.

Cc1ccc(S(=O)(=O)Oc2cccc3c(S(=O)(=O)NCc4ccc(N(C)C)cc4)cccc23)cc1 [Compound 1-17, N-[4-(Dimethylamino)benzyl]-5-{[(4-methylphenyl)sulfonyl]oxy}naphthalene-1-sulfonamide] was tested. Which “Activity (enhancement of inhibitory effect on cell proliferation in combination with bleomycin)” value did it give?
The value was “++”.

Which “Activity (enhancement of inhibitory effect on cell proliferation in combination with bleomycin)” value does the source give for O=[N+]([O-])c1cccc(CNS(=O)(=O)c2ccc3c(O)cccc3c2)c1 [Compound 4-3, N-(3-Nitrobenzyl)-5-hydroxynaphthalene-2-sulfonamide] here?
Its value is “+”.

CC(=O)Oc1cccc2cc(S(=O)(=O)NCc3ccccc3)ccc12 [Compound 3-1, 5-Acetyloxy-N-benzylnaphthalene-2-sulfonamide] was tested. Which “Activity (enhancement of inhibitory effect on cell proliferation in combination with bleomycin)” value did it give?
The value was “+”.

Which “Activity (enhancement of inhibitory effect on cell proliferation in combination with bleomycin)” value does the source give for Cc1ccc(S(=O)(=O)Oc2cccc3c(S(=O)(=O)Nc4ccccc4)cccc23)cc1 [Compound 1-24, N-Phenyl-5-{[(4-methylphenyl)sulfonyl]oxy}naphthalene-1-sulfonamide] here?
The value was “++”.
